Patent publication US10800789B2, “Antiviral compounds” (Gilead Pharmasset LLC, priority 2012, dated 2020)
pEC50: −log10 of the molar value. Read-outs that look alike come from different tables or passages of the source.

Tests used:
[1] = system: stable HCV 1a RLuc replicon cells (dicistronic genotype 1a H77 replicon); assay: Renilla luciferase HCV replicon reporter assay, genotype 1a; format: cell-based; conditions: Hepatitis C virus, 72 h, stable 1a H77 RLuc replicon cells
Outline: (§1)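 72 h compound exposure (3-fold dilutions from 10 mM DMSO stocks) of replicon cells: stable dicistronic RLuc 1a H77, 1b Con1, 2a JFH-1 (NS5A L31); J6-NS5A chimera in JFH-1 (M31), transient in Huh-Lunet or stable. Renilla luciferase read-out, non-linear regression → EC50. DMSO negative control.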

[2] = system: stable HCV 2a JFH-1 Rluc replicon cells (L31 present in NS5A); assay: Renilla luciferase HCV replicon reporter assay, genotype 2a JFH-1; format: cell-based; conditions: Hepatitis C virus; for EC50: read-out: 2a JFH (nM), genotype 2a JFH-1 replicon (L31 in NS5A), stable cells; for pEC50: read-out: 2a JFH, stable 2a JFH-1 Rluc replicon cells, L31 in NS5A, activity range
Outline: as §1

[3] = system: NS5A chimeric genotype 1b Con1 replicon with genotype 4a ED43 strain NS5A gene; assay: Replicon assay, genotype 4a NS5A chimera; format: cell-based, HCV; conditions: Hepatitis C virus; for EC50: read-out: 4a (s) (nM), genotype 4a NS5A chimeric replicon, stable replicon cells (s); for pEC50: read-out: 4a (s), (s), activity range
[4] = system: stable HCV 1b RLuc replicon cells (dicistronic genotype 1b Con1 replicon); assay: Renilla luciferase HCV replicon reporter assay, genotype 1b; format: cell-based; conditions: Hepatitis C virus, 72 h, stable 1b Con1 RLuc replicon cells, 72 hours; read-out: 1b
Outline: as §1

[5] = system: NS5A chimeric genotype 1b Con1 replicon with genotype 3a S52 strain NS5A gene; assay: Replicon assay, genotype 3a NS5A chimera; format: cell-based, HCV; conditions: Hepatitis C virus; for pEC50: activity range
[6] = system: NS5A chimeric genotype 2a JFH-1 replicon with genotype 2b MD2b-1 strain NS5A gene (M31 present); assay: Replicon assay, genotype 2b NS5A chimera; format: cell-based, HCV; conditions: Hepatitis C virus; for pEC50: 2BS, read-out: 2b (s), stably replicating replicon cells (s), activity range; for EC50: read-out: 2b (s) (nM), genotype 2b MD2b-1 NS5A chimeric replicon (M31), stably replicating replicon cells (s)
Outline: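 EC50 was fitted by non-linear regression to Renilla luciferase signal after 72 h of exposure to 3-fold serially diluted compound (10 mM DMSO stocks). Controls were DMSO (none) and ITMN-191 above 100×EC50 (full). Chimeric 2a replicons were used either stable or transiently transfected into Huh-Lunet cells.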

[7] = system: NS5A chimeric genotype 2a JFH-1 replicon with genotype 2a J6 strain NS5A gene (M31 present); assay: Replicon assay, genotype 2a J6 NS5A chimera; format: cell-based, HCV; conditions: Hepatitis C virus; for EC50: read-out: 2a J6 (t) (nM), genotype 2a J6 NS5A chimeric replicon (M31), transiently transfected (t) into Huh-Lunet cells; for pEC50: read-out: 2a J6 (t), transiently transfected (t) into Huh-Lunet cells, activity range
Outline: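 Antiviral EC50 was determined in HCV replicon cells (stable RLuc lines for 1a H77, 1b Con1, 2a JFH-1 with NS5A L31; J6 NS5A chimera with M31) treated 72 h with compound. Renilla luciferase was then quantified.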

[8] = system: Q30R in genotype 1a NS5A (1a Pi-Rluc replicon, Huh-7-derived cured-51 cells); assay: Replicon assay against resistance mutant 1a Q30R; format: cell-based, HCV; conditions: Hepatitis C virus; for pEC50: read-out: 1a Q30R; for EC50: read-out: 1a Q30R (nM)
Description: Antiviral potency (EC50) was determined using a Renilla luciferase (RLuc)-based HCV replicon reporter assay. To perform the assay for genotype 1 and 2a JFH-1, stable HCV 1a RLuc replicon cells (harboring a dicistronic genotype 1a H77 replicon that encodes a RLuc reporter), stable HCV 1b RLuc replicon cells (harboring a dicistronic genotype 1b Con1 replicon that encodes a RLuc reporter), or stable HCV 2a JFH-1 Rluc replicon cells (harboring a dicistronic genotype 2a JFH-1 replicon that encodes a RLuc reporter; with L31 present in NS5A) were dispensed into 384-well plates for EC50 assays. To perform the assay for genotype 2a (with M31 present in NS5A) or 2b, NS5A chimeric genotype 2a JFH-1 replicons that encodes a RLuc-Neo reporter and either genotype 2a J6 strain NS5A gene or genotype 2b MD2b-1 strain NS5A gene (both with M31 present) respectively, were either transiently transfected (t) into Huh-Lunet cells or were established as stably replicating replicon cells (s) is provided. Either cells were dispensed into 384-well plates for EC50 assays. To perform the assay for genotype 3 and 4, NS5A chimeric genotype 1b Con1 replicons that encodes a Pi-RLuc reporter and either genotype 3a S52 strain NS5A gene or genotype 4a ED43 strain NS5A gene respectively, were transiently transfected (t) into Huh-Lunet cells, which were subsequently dispensed into 384-well plates. Compounds were dissolved in DMSO at a concentration of 10 mM and diluted in DMSO either manually or using an automated pipeting instrument. Serially 3-fold diluted compounds were either manually mixed with cell culture media and added to the seeded cells or directly added to the cells using an automated instrument. DMSO was used as a negative (solvent; no inhibition) control, and the protease inhibitor ITMN-191 was included at a concentration>100×EC50 as a positive control. 72 hours later, cells were lysed and Renilla luciferase activity quantified as recommended by the manufacturer (Promega-Madison, Wis.). Non-linear regression was performed to calculate EC50 values.
To determine the antiviral potency (EC50) against resistance mutants, resistance mutations, including M28T, Q30R, Q30H, Q30E, L31M, Y93C, Y93H, and Y93N in genotype 1a NS5A, Y93H and L31V/Y93H in genotype 1b NS5A, and Y93H for in genotype 3a NS5A, were introduced individually into either 1a Pi-Rluc or 1b Pi-Rluc replicons by site directed mutagenesis. Replicon RNA of each resistant mutant was transiently transfected into Huh-7-derived cured-51 cells and antiviral potency was determined on these transfected cells as described above.

[9] = read-out: 3a (s) (nM), genotype 3a NS5A chimeric replicon, stable replicon cells (s)
[10] = read-out: 3a (t) (nM), genotype 3a NS5A chimeric replicon, transiently transfected (t)
[11] = read-out: 3a (t), transiently transfected (t) into Huh-Lunet cells

SMILES | pEC50 [1] | pEC50 ([1]; activity range) | EC50 [2] [nM] | pEC50 [2] | EC50 [3] [nM] | pEC50 [3] | pEC50 [4] | EC50 [5, 9] [nM] | pEC50 ([5]; read-out: 3a (s), (s)) | pEC50 [6] | EC50 [6] [nM] | EC50 [7] [nM] | pEC50 [7] | pEC50 [8] | EC50 [8] [nM] | EC50 [5, 10] [nM] | pEC50 [5, 11]
COC(=O)N[C@H](C(=O)N1[C@@H](C)CC[C@H]1c1ncc(-c2ccc3c(c2)COc2cc4c(ccc5nc([C@@H]6CC[C@H](C)N6C(=O)[C@@H](NC(=O)OC)[C@H](C)OC)[nH]c54)cc2-3)[nH]1)C(C)C [FK, Methyl [(2S)-1-{(2S,5S)-2-[5-(2-{(2S,5S)-1-[N-(methoxycarbonyl)-O-methyl-L-allothreonyl]-5-methylpyrrolidin-2-yl}-1,11-dihydroisochromeno[4′,3′:6,7]naphtho[1,2-d]imidazol-9-yl)-1H-imidazol-2-yl]-5-methylpyrrolidin-1-yl}-3-methyl-1-oxobutan-2-yl]carbamate] | 10.62 | > 10.00 | 0.038 | > 10.00 | 0.018 | > 10.00 | 10.43 | 0.137 | 9.00 to 10.00 | 9.00 to 10.00 | 0.476 | 0.4 | 9.00 to 10.00 | 9.00 to 10.00 | 0.498 |  | 
COC(=O)N[C@H](C(=O)N1[C@@H](C)CC[C@H]1c1nc(Cl)c(-c2ccc3c(c2)COc2cc4c(ccc5nc([C@@H]6CC[C@H](C)N6C(=O)[C@@H](NC(=O)OC)[C@@H](C)OC)[nH]c54)cc2-3)[nH]1)[C@@H](C)OC [GB, Methyl [(2S,3R)-1-{(2S,5S)-2-[9-(4-chloro-2-{(2S,5S)-1-[N-(methoxycarbonyl)-O-methyl-L-threonyl]-5-methylpyrrolidin-2-yl}-1H-imidazol-5-yl)-1,11-dihydroisochromeno[4′,3′:6,7]naphtho[1,2-d]imidazol-2-yl]-5-methylpyrrolidin-1-yl}-3-methoxy-1-oxobutan-2-yl]carbamate] | 10.80 | > 10.00 | 0.011 | > 10.00 | 0.007 | > 10.00 | 10.72 | 0.029 | > 10.00 | > 10.00 | 0.089 | 0.023 | > 10.00 | > 10.00 | 0.075 | 0.034 | > 10.00
COC(=O)N[C@H](C(=O)N1[C@@H](C)CC[C@H]1c1nc(C)c(-c2ccc3c(c2)COc2cc4c(ccc5nc([C@@H]6CC[C@H](C)N6C(=O)[C@@H](NC(=O)OC)[C@@H](C)OC)[nH]c54)cc2-3)[nH]1)[C@@H](C)OC [GD, Methyl [(2S,3R)-3-methoxy-1-{(2S,5S)-2-[9-(2-{(2S,5S)-1-[N-(methoxycarbonyl)-O-methyl-L-threonyl]-5-methylpyrrolidin-2-yl}-4-methyl-1H-imidazol-5-yl)-1,11-dihydroisochromeno[4′,3′:6,7]naphtho[1,2-d]imidazol-2-yl]-5-methylpyrrolidin-1-yl}-1-oxobutan-2-yl]carbamate] | 10.72 | > 10.00 | 0.035 | > 10.00 | 0.018 | > 10.00 | 10.57 | 0.07 | > 10.00 | > 10.00 | 0.09 | 0.04 | > 10.00 | 9.00 to 10.00 | 0.105 | 0.042 | > 10.00
